The values below come from patent US20220071996A1, “ORAL FORMULATIONS OF BRANAPLAM” (NOVARTIS AG, priority 2018, published 2022).

Series [1] deals with infants with Type I Spinal Muscular Atrophy. Nature of the series: open-label first-in-human proof of concept study of oral branaplam. Format: in vivo. As for the experimental part: Clinical Trial: An Open-Label Multi-Part First-In-Human Proof of Concept Study of Oral Branaplam in Infants with Type I Spinal Muscular Atrophy. • Part 1: The aim of part one of this study was to determine the safety and tolerability of ascending weekly doses and to estimate the maximum tolerated dose (MTD) of oral/enteral branaplam in infants with Type 1 SMA. All patients had exactly 2 copies of the SMN2 gene. • In part one of the study, patients were dosed once weekly with branaplam. The branaplam doses were escalated in subsequent cohorts until MTD was determined or when PK results confirmed that the MTD could not be reached due to a potential pharmacokinetic exposure plateau at higher doses. A decision to dose escalate the next cohort was made after safety data had been collected for 14 days following the first dose. Patients completing 13 weeks of treatment were considered to have completed the study. The starting dose was 6 mg/m^2 (approximately 0.3125 mg/kg). Subsequent doses were 12 mg/m^2, 24 mg/m^2, 48 mg/m^2 and 60 mg/m^2 (approximately 0.625 mg/kg, 1.25 mg/kg, 2.5 mg/kg and 3.125 mg/kg, respectively). Each cohort had 2-3 patients. All doses are of branaplam in free form. 14 patients were enrolled in Part 1; 13 patients were exposed to branaplam. The duration of exposure ranged from 4-33 months, 7 patients remain in the study. Six of the 7 patients are receiving 60 mg/m^2, 1 patient is receiving 48 mg/m^2.
Preliminary Safety Results • AEs/SAEs: 455 AEs were reported in the 13 patients; the vast majority were attributed to the underlying disease. Seventy-nine SAEs occurred associated with 59 hospitalizations of which 39 of the 59 hospitalizations were for respiratory events or infections. • Deaths: A total of five patients have died, all from ventilatory failure due to their underlying disease.
Part 2 of the study will enroll patients into 2 cohorts: cohort 1 at a 0.625 mg/kg dose and cohort 2 at a 2.5 mg/kg dose. The selected dose levels of 0.625 mg/kg and 2.5 mg/kg are based on all safety data from Part 1, as well as, all data from chronic juvenile toxicity studies available at the time of initiation of Part 2. Six to 10 patients will be enrolled in cohorts 1 and 2. A total of a minimum of 12 and maximum of 20 patients will be enrolled and treated for 52 weeks. • Starting dose: The dose of 0.625 mg/kg (corresponding to 12 mg/m^2) is chosen as a starting dose in Part 2 based on safety and preliminary efficacy data collected in Part 1 of the study. Indeed, following an USM treatment with branaplam continued but at a reduced dose of 6 mg/m^2 (0.3125 mg/kg) for all patients who had completed the initial 13 weeks of treatment. This dose was predicted to be efficacious based upon the preliminary clinical (CHOP INTEND) response of patients in Cohort 1. […] For that reason and also given the preliminary efficacy data collected in patients treated with branaplam at 12 mg/m^2 (0.625 mg/kg) it was decided to take this dose as a starting dose in Part 2. • Second dose: The dose of 2.5 mg/kg (corresponding to 48 mg/m^2) is selected as the second dose in Part 2 being 4-fold higher than the starting dose of 0.625 mg/kg (corresponding to 12 mg/m^2). The difference between 0.625 mg/kg and 2.5 mg/kg is considered to be sufficient to ensure appropriate separation in terms of systemic branaplam exposure and potentially also of efficacy endpoints.

The test system of another series is juvenile dog. Nature of the series: 52-week chronic juvenile dog study. Type of series: in vivo.

Regarding `CC1(C)CC(Oc2ccc(-c3ccc(-c4cn[nH]c4)cc3O)nn2)CC(C)(C)N1` [branaplam, 5-(1H-pyrazol-4-yl)-2-(6-((2,2,6,6-tetramethylpiperidin-4-yl)oxy)pyridazin-3-yl)phenol], the “decrease of CHOP INTEND scores” value in series [1] (13 weeks of treatment) is on record as “no significant decrease was observed in any patient”. For the same compound, the “Deaths (patients)” value in series [1] (all from ventilatory failure due to underlying disease) was “five”. Also, in series [1] (human, in vivo), the AEs reported was found to be 455, the “hospitalizations associated with SAEs” value is 59 and the “hospitalizations for respiratory events or infections” value is listed as 39. Further, in series [1] (in vivo), the Clinical status entry was “do not follow the normal disease course for Type 1 SMA patients”, the SAEs result was “Seventy-nine”, the “patients who reached a CHOP INTEND score of >36” value is given as “Eight” and the “patients without feeding support after more than one year of treatment” value was “six”. Besides, in series [1] (in vivo), the “patients without feeding support after more than two years of treatment” value was “five”; the “safety events following dose reduction” value was “decrease of motor skills, generalized motor weakness and increased respiratory muscle weakness”; the “treated patients without feeding support at around 8 months of age” value is “Ten”. In series [1] (in vivo, po), the dose limiting toxicity entry is “No dose limiting toxicity was observed”. The “Death or permanent ventilation endpoint” value in series [1] (natural history median age 13.5 months) was “majority of treated patients have not met this endpoint”. The “HINE Section 2: patients who achieved independent sitting” value in series [1] (of the 11 patients evaluated) was “one”. The “patients with progressive and substantial increase of CHOP INTEND scores” value in series [1] (po, 2184 h) turned out to be 7. In addition, the “patients without any ventilatory support with BiPAP” value in series [1] (treated for more than two years) is given as “Four”. In addition, in the series on juvenile dog, the nerve findings result is on record as “findings of nerve degeneration”.
